Experimental data published in article PMC6100568, “Novel Uridine Glycoconjugates, Derivatives of 4-Aminophenyl 1-Thioglycosides, as Potential Antiviral Compounds” (Molecules : A Journal of Synthetic Chemistry and Natural …, 2018).
“Also recorded” adds a separate entry of the source. Like-named read-outs stand apart in the source and are kept apart here.

Assays:
[1] = system: classical swine fever virus (CSFV)
in vitro [2] = conditions: swine
[3] = system: classical swine fever virus (CSFV); test: microbe, parasite or virus in culture
[4] = MTT cell viability assay in non-infected Huh-7.5 cells; conditions: human
[5] = system: HCVcc (Jc1/JFH genotype 2a); test: HCVcc pseudo-plaque reduction assay (IPMA) in Huh-7.5 cells; conditions: for SI (CC50/IC50): HCV (Huh-7.5 cells); for IC50: Hepatitis C virus, Huh7.5
swine kidney (SK6) cells [6] = system: swine kidney (SK6) cells
[7] = system: HCVcc genotype 2a JFH-1 strain; test: SEAP reporter assay in Huh7-J20 cells, three infection models (time-of-drug addition); format: cell-based, hepatitis C virus; conditions: SEAP level; for effect on virus entry (Model 1): 1 h pre-treatment + 3 h infection with compound, then 72 h without; for antiviral activity in post-viral entry model (Model 3): compound added after 3 h infection for 72 h; for antiviral activity in full life cycle (Model 2): compound present before, during and 72 h after infection
[8] = system: HCV replication (Huh7-J17 replicon); test: HCV replicon Huh7-J17 luciferase assay; format: cell-based; conditions: Hepatitis C virus; Huh7-J17 replicon cells, 72 h; read-out: IC50 (inhibition of HCV RNA replication, luciferase activity)
[9] = system: HCV viral RNA (NS5B gene); format: cell-based, hepatitis C virus
in vitro [10] = conditions: human
β-1,4GalT = target: T1, β-1,4GalT (Bos taurus, UniProt P08037); test: Bovine milk β-1,4GalT I assay (RP-HPLC, fluorescence); format: biochemical; conditions: for ability to inhibit β-1,4GalT activity: 0.8 mM
T1 construct: purchased; host or cells: bovine milk
T1 sequence (P08037 78-402 limits assumed): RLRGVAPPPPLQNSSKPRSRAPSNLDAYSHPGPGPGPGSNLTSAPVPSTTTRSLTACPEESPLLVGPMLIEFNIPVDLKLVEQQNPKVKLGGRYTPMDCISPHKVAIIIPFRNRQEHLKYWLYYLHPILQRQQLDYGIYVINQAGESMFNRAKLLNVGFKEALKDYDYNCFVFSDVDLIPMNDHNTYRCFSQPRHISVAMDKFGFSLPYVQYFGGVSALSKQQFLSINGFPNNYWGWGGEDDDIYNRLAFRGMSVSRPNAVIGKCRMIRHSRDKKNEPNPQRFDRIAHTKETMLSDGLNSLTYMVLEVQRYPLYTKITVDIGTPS

viral genome replication = conditions: cited from earlier work
swine kidney (SK6) cells [11] = conditions: cited from earlier work
[12] = system: classical swine fever virus (CSFV); conditions: cited from earlier work
Huh-7.5 cells [13] = conditions: cited from earlier work
[14] = system: HCVcc (Jc1/JFH genotype 2a); conditions: cited from earlier work
Huh7-J17 cells = conditions: human
Huh-7.5 cells [15] = test: MTT cell viability assay in non-infected Huh-7.5 cells; conditions: concentration reducing cell viability by 50%, mean ± S.D.

Structure (SMILES) | SI (CC50/IC50) [1] | CC50 (in vitro [2]) [µM] | IC50 [3] [µM] | CC50 [4] [µM] | SI (CC50/IC50) [5] | IC50 [5] [µM] | further results
CC(=O)OC[C@H]1O[C@@H](Sc2ccc(NC(=O)CCC(=O)OC[C@H]3O[C@@H](n4ccc(=O)[nH]c4=O)[C@@H]4OC(C)(C)O[C@@H]43)cc2)[C@H](OC(C)=O)[C@@H](OC(C)=O)[C@@H]1OC(C)=O [Compound 7] | 1.1 | 103 ± 5.9 | 97 ± 2 | 399 ± 11.4 | 1.4 | 281 ± 4.7 | –
CC(=O)OC[C@H]1O[C@@H](Sc2ccc(NC(=O)CCC(=O)OC[C@H]3O[C@@H](n4ccc(=O)[nH]c4=O)[C@H](O[Si](C)(C)C(C)(C)C)[C@@H]3O[Si](C)(C)C(C)(C)C)cc2)[C@H](OC(C)=O)[C@@H](OC(C)=O)[C@@H]1OC(C)=O [Compound 8] | 9.3 | 42 ± 1.9 | 4.5 ± 0.3 | 16 ± 1.1 | 4 | 4 ± 0.2 | cytotoxicity in words (swine kidney (SK6) cells [6]): relatively toxic
CC(=O)OC[C@H]1O[C@@H](Sc2ccc(NC(=O)CCC(=O)OC[C@H]3O[C@@H](n4ccc(=O)[nH]c4=O)[C@H](O[Si](C)(C)C(C)(C)C)[C@@H]3O[Si](C)(C)C(C)(C)C)cc2)[C@H](OC(C)=O)[C@@H](OC(C)=O)[C@H]1OC(C)=O [Compound 9] | 29.5 | 124 ± 6.8 | 4.2 ± 0.5 | 257 ± 5.7 | 52.4 | 4.9 ± 0.3 | effect on virus entry (Model 1) [7]: none of the tested compounds targeted virus entry; also recorded: neither compound affected viral entry; antiviral activity in post-viral entry model (Model 3) [7]: strong antiviral activity; antiviral activity in full life cycle (Model 2) [7]: strong antiviral activity; IC50 [8]: 4.18 µM; amount of viral RNA (NS5B RT-PCR) [9]: significant dose-dependent inhibition; inhibition of CSFV propagation (size and number of pseudo-plaques) [1]: dose-dependent inhibition; CC50 (in vitro [10]): 133 µM; inhibition of viral HCV replication (pseudo-plaques) ([5]; Huh-7.5 cells, 4–10 µM, Figure 2): dose-dependent inhibition
CC(=O)OC[C@H]1O[C@@H](Sc2ccc(NC(=O)[C@H]3O[C@@H](n4ccc(=O)[nH]c4=O)[C@@H]4OC(C)(C)O[C@@H]43)cc2)[C@H](OC(C)=O)[C@@H](OC(C)=O)[C@@H]1OC(C)=O [Compound 10] | 2.2 | 326 ± 11.2 | 149 ± 6.1 | 258 ± 6.2 | 1.7 | 154 ± 2.8 | –
CC(=O)OC[C@H]1O[C@@H](Sc2ccc(NC(=O)[C@H]3O[C@@H](n4ccc(=O)[nH]c4=O)[C@@H]4OC(C)(C)O[C@@H]43)cc2)[C@H](OC(C)=O)[C@@H](OC(C)=O)[C@H]1OC(C)=O [Compound 11] | 1.6 | 340 ± 9.1 | 217 ± 3.9 | 272 ± 4.5 | 1.6 | 167 ± 3.1 | –
CC(=O)OC[C@H]1O[C@@H](Sc2ccc(NC(=O)[C@H]3O[C@@H](n4ccc(=O)[nH]c4=O)[C@H](O[Si](C)(C)C(C)(C)C)[C@@H]3O[Si](C)(C)C(C)(C)C)cc2)[C@H](OC(C)=O)[C@@H](OC(C)=O)[C@@H]1OC(C)=O [Compound 12] | – | 56 ± 4.3 | 4 ± 0.1 | 270 ± 2.9 | 20.0 | 13.5 ± 0.7 | effect on virus entry (Model 1) [7]: none of the tested compounds targeted virus entry; also recorded: neither compound affected viral entry; antiviral activity in post-viral entry model (Model 3) [7]: strong antiviral activity; antiviral activity in full life cycle (Model 2) [7]: strong antiviral activity; IC50 [8]: 4.24 µM; amount of viral RNA (NS5B RT-PCR) [9]: significant dose-dependent inhibition; cytotoxicity in words (swine kidney (SK6) cells [6]): relatively toxic; CC50 (in vitro [10]): 130 µM
CC(=O)OC[C@H]1O[C@@H](Sc2ccc(NC(=O)[C@H]3O[C@@H](n4ccc(=O)[nH]c4=O)[C@H](O[Si](C)(C)C(C)(C)C)[C@@H]3O[Si](C)(C)C(C)(C)C)cc2)[C@H](OC(C)=O)[C@@H](OC(C)=O)[C@H]1OC(C)=O [Compound 13] | 2.0 | 49 ± 3.5 | 25 ± 0.9 | 14 ± 0.9 | 1.9 | 7.4 ± 0.2 | cytotoxicity in words (swine kidney (SK6) cells [6]): relatively toxic
O=C(Nc1ccc(S[C@@H]2O[C@H](CO)[C@@H](O)[C@H](O)[C@H]2O)cc1)[C@H]1O[C@@H](n2ccc(=O)[nH]c2=O)[C@H](O)[C@@H]1O [Compound 14] | 1.1 | 256 | 241 ± 9.2 | > 475 | >1.1 | 444 ± 12.4 | ability to inhibit β-1,4GalT activity (β-1,4GalT): demonstrated the ability of β-1,4GalT inhibition; also recorded: able to inhibit; IC50 (β-1,4GalT; inhibitor 0.1–0.8 mM, UDP-Gal donor, esculine acceptor): 330 µM; CC50 (swine kidney (SK6) cells [6]; swine): 265 ± 8.6 µM
O=C(Nc1ccc(S[C@@H]2O[C@H](CO)[C@H](O)[C@H](O)[C@H]2O)cc1)[C@H]1O[C@@H](n2ccc(=O)[nH]c2=O)[C@H](O)[C@@H]1O [Compound 15] | 1.1 | 278 ± 4.3 | 257 ± 6.9 | 460 ± 9.3 | 1.0 | 454 ± 9.8 | ability to inhibit β-1,4GalT activity (β-1,4GalT): demonstrated the ability of β-1,4GalT inhibition; reduction of enzyme activity (β-1,4GalT; maximum test concentration of 0.8 mM): 10%
CC(=O)OC[C@H]1O[C@@H](Sc2ccc(NC(=O)[C@H]3O[C@@H](n4ccc(=O)[nH]c4=O)[C@H](O[Si](C)(C)C(C)(C)C)[C@@H]3O[Si](C)(C)C(C)(C)C)cn2)[C@H](OC(C)=O)[C@@H](OC(C)=O)[C@H]1OC(C)=O [II] | – | – | – | – | – | – | reduction of viral genome replication (viral genome replication): up to 90%; CC50 (swine kidney (SK6) cells [11]): 151 ± 3.1 µM; IC50 [12]: 6 ± 0.4 µM; SI (CC50/IC50) [12]: 25.2; CC50 (Huh-7.5 cells [13]): 173 ± 3.2 µM; IC50 [14]: 7 ± 0.4 µM; SI (CC50/IC50) [14]: 24.7
CC(=O)OC[C@H]1O[C@@H](Sc2ccc(NC(=O)[C@H]3O[C@@H](n4ccc(=O)[nH]c4=O)[C@H](O[Si](C)(C)C(C)(C)C)[C@@H]3O[Si](C)(C)C(C)(C)C)cn2)[C@H](OC(C)=O)[C@@H](OC(C)=O)[C@@H]1OC(C)=O [I] | – | – | – | – | – | – | reduction of viral genome replication (viral genome replication): up to 90%; CC50 (swine kidney (SK6) cells [11]): 86 ± 2.4 µM; IC50 [12]: 3 ± 0.1 µM; SI (CC50/IC50) [12]: 28.7; CC50 (Huh-7.5 cells [13]): 135 ± 2.4 µM; IC50 [14]: 7 ± 0.7 µM; SI (CC50/IC50) [14]: 19.3
CC(C)OC(=O)[C@H](C)N[P@](=O)(OC[C@H]1O[C@@H](n2ccc(=O)[nH]c2=O)[C@](C)(F)[C@@H]1O)Oc1ccccc1 [SOFOSBUVIR, sofosbuvir, reference compound] | – | – | – | – | 119.2 | 0.26 ± 0.02 | effect on virus entry (Model 1) [7]: no effect on virus entry; antiviral activity in post-viral entry model (Model 3) [7]: exerts its antiviral activity effect; antiviral activity in full life cycle (Model 2) [7]: exerts its antiviral activity effect; IC50 [8]: 0.028 µM; CC50 (Huh7-J17 cells): 23.5 µM; CC50 (Huh-7.5 cells [15]): 31 ± 1.2 µM
